Reference: US9821000B2, “Compounds, compositions and corresponding uses for preventing and/or treating of dyslipidemia” (CENTRE NATIONAL DE LA RECHERCHE SCIENTIFIQUE (CNRS), priority 2013, dated 2017)

Assays:
[1] = tested on: QM strain; assay: Toxicity test on QM strain (growth inhibition haloes); type: cell-based, Saccharomyces cerevisiae; conditions: after three days; for toxicity for cells that do not synthesize triglycerides: QM strain on agar medium; for haloes of growth inhibition (absence of colonies): QM strain, 5 μl drops on agar
Experimental: 5 μl drops of OAG, LPA or oleic acid were deposited, from stock solutions in the concentrations indicated, on the surface of an agar medium on which the QM strain had been preliminarily spread. […] These haloes are on the contrary not observed in the presence of LPA and OAG.
At the same time, wild strains (WT) and QM are cultivated in aerobic conditions under stirring and at 28° C., in a YPG liquid medium before seeding 3500 cells per cm^2 of YPG+agar 2% (m/v). Following this transfer to solid medium, 1 μL drops of solutions of different compounds at 1, 10 and 100 mM in DMSO or EtOH are deposited on the surface of the agar. Separately, deposits of DMSO and EtOH are also made in order to assess the intrinsic toxicity of these two solvents. After three days of culture of 28° C., the toxicity of the tested compounds is evaluated by comparing the diameters of the growth inhibition haloes obtained for the deposits of undissolved solvents with those of the deposits of different concentrations of compounds tested.

[2] = tested on: UPR response; assay: UPR triggering test (4xUPRE-LacZ reporter, β-galactosidase activity) in hem1Δ yeast; type: cell-based, Saccharomyces cerevisiae; conditions: hem1Δ in liquid medium inducing SFA accumulation, 200 μM compound
From the text: A plasmidic construction carrying a fusion gene, corresponding to the encoding sequence of the gene LacZ placed under dependence of an artificial promoter containing four UPR elements (UPRE) was introduced into a hem1Δf yeast strain, as described in Pineau et al. (2009). During an induction of the UPR response, the Hac1p/XBP1p transcription is activated and gets fixed on the UPR elements of the fusion gene, leading to the transcription of the LacZ gene. With LacZ encoding β-galactosidase, the level of induction of UPR is measured to detect the corresponding enzyme activity. The hem1Δ yeast strain was cultivated in a liquid medium inducing the accumulation of SFA without other addition (Ø), or in the same medium supplemented with 200 μM of oleic acid, OAG or LPA as indicated. A.U.: arbitrary units.
The hem1Δ strain transformed by the plasmid pPW344 [2 μ URA34×UPRE-LacZ (Patil et al., 2004)] is cultivated in liquid medium YPG^A, YPG or YPG+200 μM of compound to be tested in aerobic conditions, under stirring and at 28° C. for 7 h, starting from an initial cell concentration of 2·10^6 cells/mL. At the end of the culture, 10^8 cells are collected in order to quantify the beta-galactosidase (β-gal) activity resulting from the expression of the LacZ trans gene (in the case of a triggering of UPR). […]

[3] = tested on: BRIN-BD11 pancreatic β-cells; assay: Cell viability test (propidium iodide, flow cytometry) of pancreatic β-cells lipo-intoxicated by palmitic acid; type: cell-based, rat; conditions: BRIN-BD11, palmitic acid 200 μM, growing concentrations of compound
Experimental: The BRIN-BD11 pancreatic β-cells were cultivated in controlled conditions or in the presence of an exogenous source of saturated fatty acids (palmitic acid 200 μM), as described by Dhayal& Morgan (2011) in order to generate conditions of lipotoxicity with or without addition of OAG or LPA.
FIG. 7A—The proportion of dead cells was estimated in the absence (Ctrl) or in the presence of palmitic acid (Palm), for growing concentrations of OAG and LPA.
The lipidic species are prepared in ethanol and then complexed with bovine serum albumen (BSA initially devoid of fatty acids) by incubation for one hour at 37° C. […]
The pancreatic β-cell cell line (BRIN-BD11) of rats is cultivated in an RPMI-1640 complete medium containing glucose at 11 mM and supplemented with 10% (v/v) of fetal calf serum (FCS), 2 mM of L-glutamine, 100 U/mL of penicillin and 100 μg/mL of streptomycin. […] In the case of the controlled conditions, identical quantities of BSA and ethanol were then used. […] After incubation at 10 minutes on ice, the samples thus obtained are analyzed by cytometry in flux. A Beckman Coulter EPICS XL MCL is used for quantification, an FL3 channel serves to detect emissions from PI interposed in the DNA and the analysis is done by means of the software EXPO32 ADC (Applied Cytometry Systems, V 1.1 build 207).

Compound | toxicity for cells that do not synthesize triglycerides [1] | haloes of growth inhibition (absence of colonies) [1] | UPR response in lipo-intoxicated yeasts (β-galactosidase activity) [2] | apoptosis (proportion of dead cells) of pancreatic β-cells in the presence of saturated fatty acids [3]
CCCCCCCC/C=C\CCCCCCCC(=O)OC[C@@H](O)COP(=O)(O)O [LPA, 1-oleoyl-sn-glycerol-3-phosphate] | not toxic | not observed | reduce the UPR response | prevent apoptosis
CCCCCCCC/C=C\CCCCCCCC(=O)OC[C@H](CO)OC(C)=O [OAG, 1-oleoyl-2-acetyl-sn-glycerol] | not toxic | not observed | reduce the UPR response | prevent apoptosis
